Test results as given in patent US9738634B2, “Heterocyclic amide compound and herbicide” (SYNGENTA PARTICIPATIONS AG, priority 2013, dated 2017).

What was measured:
Assay type in all cases: in vivo
Conditions in all cases: treatment dosage 320 g/ha
[1] = tested on: barnyard grass; experiment: Test Example 1: weedkilling efficacy, preemergent weed treatment in the submerged state; A: barnyard grass
Method in brief: (§1)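 Emulsion diluted with water to the specified per-hectare dosage is applied onto flood water (4 cm) over alluvial soil on the sowing day, with barnyard grass, bulrush and pondweed seeded and rice (2.5-leaf) transplanted; plants grow at 25–30 °C and are rated at 3 weeks.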

[2] = tested on: bulrush; experiment: Test Example 1: weedkilling efficacy, preemergent weed treatment in the submerged state; B: bulrush
Method in brief: as §1

[3] = tested on: oval-leafed pondweed; experiment: Test Example 1: weedkilling efficacy, preemergent weed treatment in the submerged state; C: oval-leafed pondweed
Method in brief: as §1

[4] = tested on: transplanted rice; experiment: Test Example 1: preemergent weed treatment in the submerged state, effect on crop; a: transplanted rice
Method in brief: as §1

[5] = tested on: barnyard grass; experiment: Test Example 2: weedkilling efficacy, growth period weed treatment in the submerged state; A: barnyard grass
Method in brief: (§2)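 First, alluvial soil in pots is flooded to 4 cm and mixed seed is sown. Next, plants grow in a greenhouse at 25 to 30° C until the 1-2 leaf stage. Then diluted emulsion is applied onto the water surface at the given g/ha rate, and injury is assessed after 3 weeks.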

[6] = tested on: bulrush; experiment: Test Example 2: weedkilling efficacy, growth period weed treatment in the submerged state; B: bulrush
Method in brief: as §2

[7] = tested on: oval-leafed pondweed; experiment: Test Example 2: weedkilling efficacy, growth period weed treatment in the submerged state; C: oval-leafed pondweed
Method in brief: as §2

[8] = tested on: crabgrass; experiment: Test Example 3: weedkilling efficacy through soil treatment; D: crabgrass
Method in brief: (§3)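 Crop and weed responses were judged three weeks after a uniform surface spray of the water-diluted emulsion at the given g/ha rate. Seeds sat beneath about 1.5 cm of sterilized diluvial soil, and boxes stood in a greenhouse at 25 to 30° C.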

[9] = tested on: green foxtail; experiment: Test Example 3: weedkilling efficacy through soil treatment; E: green foxtail
Method in brief: as §3

[10] = tested on: barnyard grass; experiment: Test Example 3: weedkilling efficacy through soil treatment; F: barnyard grass
Method in brief: as §3

[11] = tested on: wild oat; experiment: Test Example 3: weedkilling efficacy through soil treatment; G: wild oat
Method in brief: as §3

[12] = tested on: black-grass; experiment: Test Example 3: weedkilling efficacy through soil treatment; H: black-grass
Method in brief: as §3

[13] = tested on: Italian ryegrass; experiment: Test Example 3: weedkilling efficacy through soil treatment; I: Italian ryegrass
Method in brief: as §3

[14] = tested on: common wind-grass; experiment: Test Example 3: weedkilling efficacy through soil treatment; J: common wind-grass
Method in brief: as §3

[15] = tested on: Indian mallow; experiment: Test Example 3: weedkilling efficacy through soil treatment; K: Indian mallow
Method in brief: as §3

[16] = tested on: redroot pigweed; experiment: Test Example 3: weedkilling efficacy through soil treatment; L: redroot pigweed
Method in brief: as §3

[17] = tested on: fig-leafed goosefoot; experiment: Test Example 3: weedkilling efficacy through soil treatment; M: fig-leafed goosefoot
Method in brief: as §3

[18] = tested on: chickweed; experiment: Test Example 3: weedkilling efficacy through soil treatment; N: chickweed
Method in brief: as §3

[19] = tested on: catchweed; experiment: Test Example 3: weedkilling efficacy through soil treatment; O: catchweed
Method in brief: as §3

[20] = tested on: directly sown rice; experiment: Test Example 3: soil treatment, effect on crop; b: directly sown rice
Method in brief: as §3

[21] = tested on: corn; experiment: Test Example 3: soil treatment, effect on crop; c: corn
Method in brief: as §3

[22] = tested on: soybean; experiment: Test Example 3: soil treatment, effect on crop; d: soybean
Method in brief: as §3

[23] = tested on: wheat; experiment: Test Example 3: soil treatment, effect on crop; e: wheat
Method in brief: as §3

[24] = tested on: beet; experiment: Test Example 3: soil treatment, effect on crop; f: beet
Method in brief: as §3

[25] = tested on: rapeseed; experiment: Test Example 3: soil treatment, effect on crop; g: rapeseed
Method in brief: as §3

[26] = tested on: crabgrass; experiment: Test Example 4: weedkilling efficacy by foliar treatment; D: crabgrass
Method in brief: (§4)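 Seeds are spot-sown into sterilized diluvial soil and covered with about 1.5 cm of soil. After 14 days' greenhouse growth at 25 to 30° C, plants are sprayed on stems and leaves with diluted emulsion at the stated g/ha rate, then scored at 3 weeks.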

[27] = tested on: green foxtail; experiment: Test Example 4: weedkilling efficacy by foliar treatment; E: green foxtail
Method in brief: as §4

[28] = tested on: barnyard grass; experiment: Test Example 4: weedkilling efficacy by foliar treatment; F: barnyard grass
Method in brief: as §4

[29] = tested on: wild oat; experiment: Test Example 4: weedkilling efficacy by foliar treatment; G: wild oat
Method in brief: as §4

[30] = tested on: black-grass; experiment: Test Example 4: weedkilling efficacy by foliar treatment; H: black-grass
Method in brief: as §4

[31] = tested on: Italian ryegrass; experiment: Test Example 4: weedkilling efficacy by foliar treatment; I: Italian ryegrass
Method in brief: as §4

[32] = tested on: common wind-grass; experiment: Test Example 4: weedkilling efficacy by foliar treatment; J: common wind-grass
Method in brief: as §4

[33] = tested on: Indian mallow; experiment: Test Example 4: weedkilling efficacy by foliar treatment; K: Indian mallow
Method in brief: as §4

[34] = tested on: redroot pigweed; experiment: Test Example 4: weedkilling efficacy by foliar treatment; L: redroot pigweed
Method in brief: as §4

[35] = tested on: fig-leafed goosefoot; experiment: Test Example 4: weedkilling efficacy by foliar treatment; M: fig-leafed goosefoot
Method in brief: as §4

[36] = tested on: chickweed; experiment: Test Example 4: weedkilling efficacy by foliar treatment; N: chickweed
Method in brief: as §4

[37] = tested on: catchweed; experiment: Test Example 4: weedkilling efficacy by foliar treatment; O: catchweed
Method in brief: as §4

[38] = tested on: birds-eye speedwell; experiment: Test Example 4: weedkilling efficacy by foliar treatment; p: birds-eye speedwell
Method in brief: as §4

[39] = tested on: directly sown rice; experiment: Test Example 4: foliar treatment, effect on crop; b: directly sown rice
Method in brief: as §4

[40] = tested on: corn; experiment: Test Example 4: foliar treatment, effect on crop; c: corn
Method in brief: as §4

[41] = tested on: soybean; experiment: Test Example 4: foliar treatment, effect on crop; d: soybean
Method in brief: as §4

[42] = tested on: wheat; experiment: Test Example 4: foliar treatment, effect on crop; e: wheat
Method in brief: as §4

[43] = tested on: beet; experiment: Test Example 4: foliar treatment, effect on crop; f: beet
Method in brief: as §4

[44] = tested on: rapeseed; experiment: Test Example 4: foliar treatment, effect on crop; g: rapeseed
Method in brief: as §4

Compound: CC1=C(c2ccccc2)C(=O)N(C(C)(C)C(=O)Nc2cc(C(F)(F)F)cc(C)n2)CO1 [B-2-51]
- A (barnyard grass) weedkilling efficacy grade [1]: 5 (weed kill ratio 90% or more, (practically complete withering))
- B (bulrush) weedkilling efficacy grade [2]: 5 (weed kill ratio 90% or more, (practically complete withering))
- C (oval-leafed pondweed) weedkilling efficacy grade [3]: 5 (weed kill ratio 90% or more, (practically complete withering))
- a (transplanted rice) effect on crop grade [4]: 0 (weed kill ratio 5% or less (practically no effect))
- A (barnyard grass) weedkilling efficacy grade [5]: 5 (weed kill ratio 90% or more, (practically complete withering))
- B (bulrush) weedkilling efficacy grade [6]: 5 (weed kill ratio 90% or more, (practically complete withering))
- C (oval-leafed pondweed) weedkilling efficacy grade [7]: 5 (weed kill ratio 90% or more, (practically complete withering))
- D (crabgrass) weedkilling efficacy grade [8]: 5 (weed kill ratio 90% or more, (practically complete withering))
- E (green foxtail) weedkilling efficacy grade [9]: 5 (weed kill ratio 90% or more, (practically complete withering))
- F (barnyard grass) weedkilling efficacy grade [10]: 5 (weed kill ratio 90% or more, (practically complete withering))
- G (wild oat) weedkilling efficacy grade [11]: 5 (weed kill ratio 90% or more, (practically complete withering))
- H (black-grass) weedkilling efficacy grade [12]: 5 (weed kill ratio 90% or more, (practically complete withering))
- I (Italian ryegrass) weedkilling efficacy grade [13]: 5 (weed kill ratio 90% or more, (practically complete withering))
- J (common wind-grass) weedkilling efficacy grade [14]: 5 (weed kill ratio 90% or more, (practically complete withering))
- K (Indian mallow) weedkilling efficacy grade [15]: 2 (weed kill ratio 20% or more, less than 40%)
- L (redroot pigweed) weedkilling efficacy grade [16]: 4 (weed kill ratio 70% or more, less than 90%)
- M (fig-leafed goosefoot) weedkilling efficacy grade [17]: 4 (weed kill ratio 70% or more, less than 90%)
- N (chickweed) weedkilling efficacy grade [18]: 4 (weed kill ratio 70% or more, less than 90%)
- O (catchweed) weedkilling efficacy grade [19]: 3 (weed kill ratio 40% or more, less than 70%)
- b (directly sown rice) effect on crop grade [20]: 3 (weed kill ratio 40% or more, less than 70%)
- c (corn) effect on crop grade [21]: 1 (weed kill ratio 5% or more, less than 20%)
- d (soybean) effect on crop grade [22]: 0 (weed kill ratio 5% or less (practically no effect))
- e (wheat) effect on crop grade [23]: 0 (weed kill ratio 5% or less (practically no effect))
- f (beet) effect on crop grade [24]: 4 (weed kill ratio 70% or more, less than 90%)
- g (rapeseed) effect on crop grade [25]: 2 (weed kill ratio 20% or more, less than 40%)
- D (crabgrass) weedkilling efficacy grade [26]: 5 (weed kill ratio 90% or more, (practically complete withering))
- E (green foxtail) weedkilling efficacy grade [27]: 5 (weed kill ratio 90% or more, (practically complete withering))
- F (barnyard grass) weedkilling efficacy grade [28]: 5 (weed kill ratio 90% or more, (practically complete withering))
- G (wild oat) weedkilling efficacy grade [29]: 5 (weed kill ratio 90% or more, (practically complete withering))
- H (black-grass) weedkilling efficacy grade [30]: 5 (weed kill ratio 90% or more, (practically complete withering))
- I (Italian ryegrass) weedkilling efficacy grade [31]: 5 (weed kill ratio 90% or more, (practically complete withering))
- J (common wind-grass) weedkilling efficacy grade [32]: 5 (weed kill ratio 90% or more, (practically complete withering))
- K (Indian mallow) weedkilling efficacy grade [33]: 4 (weed kill ratio 70% or more, less than 90%)
- L (redroot pigweed) weedkilling efficacy grade [34]: 4 (weed kill ratio 70% or more, less than 90%)
- M (fig-leafed goosefoot) weedkilling efficacy grade [35]: 4 (weed kill ratio 70% or more, less than 90%)
- N (chickweed) weedkilling efficacy grade [36]: 4 (weed kill ratio 70% or more, less than 90%)
- O (catchweed) weedkilling efficacy grade [37]: 4 (weed kill ratio 70% or more, less than 90%)
- P (birds-eye speedwell) weedkilling efficacy grade [38]: 4 (weed kill ratio 70% or more, less than 90%)
- b (directly sown rice) effect on crop grade [39]: 4 (weed kill ratio 70% or more, less than 90%)
- c (corn) effect on crop grade [40]: 0 (weed kill ratio 5% or less (practically no effect))
- d (soybean) effect on crop grade [41]: 3 (weed kill ratio 40% or more, less than 70%)
- e (wheat) effect on crop grade [42]: 1 (weed kill ratio 5% or more, less than 20%)
- f (beet) effect on crop grade [43]: 4 (weed kill ratio 70% or more, less than 90%)
- g (rapeseed) effect on crop grade [44]: 3 (weed kill ratio 40% or more, less than 70%)
